Assay results reported in ChEMBL document CHEMBL6083262, “Stereorandomized Oncocins with Preserved Ribosome Binding and Antibacterial Activity” (J Med Chem, 2024).
Calls of active or inactive are those of the source. No cut-off for these calls is given here. Non-standard residues stand in square brackets, D forms with d. Residues, ends and D or L forms follow the SMILES beside them.

Tests used:
Staphylococcus aureus [1] = test: Antimicrobial activity against methicillin-resistant Staphylococcus aureus COL incubated for 16 to 20 hrs in full muller hinton medium by broth microdilution method; assay type: functional; conditions: time 16-20 hrs
Klebsiella pneumoniae [2] = test: Antimicrobial activity against Klebsiella pneumoniae NCTC 418 incubated for 16 to 20 hrs in 12.5 % muller hinton medium by broth microdilution method; assay type: functional; conditions: time 16-20 hrs
Lipid bilayer [3] = test: Induction of membrane disruption in egg yolk phosphatidyl choline at 10 ug/ml by measuring vesicle leakage; conditions: dose 10.0 µg/ml
Enterobacter cloacae = test: Antibacterial activity against multidrug-resistant Enterobacter cloacae incubated for 16 to 20 hrs in full muller hinton medium by broth microdilution method; assay type: functional; conditions: time 16-20 hrs
Pseudomonas aeruginosa [4] = test: Antibacterial activity against multidrug-resistant Pseudomonas aeruginosa PA14 4.18 harboring pmrB mutant incubated for 16 to 20 hrs in full muller hinton medium by broth microdilution method; assay type: functional; conditions: time 16-20 hrs
Bacteria = test: Binding affinity to his-tagged DnaK (unknown origin) expressed in Escherichia coli BL21 (DE3) in dilute muller hinton medium by microscale thermophoresis analysis
Lipid bilayer [5] = test: Induction of membrane disruption in egg yolk phosphatidyl glycerol at 10 ug/ml by measuring vesicle leakage; conditions: dose 10.0 µg/ml
Pseudomonas aeruginosa [6] = test: Antimicrobial activity against Pseudomonas aeruginosa PAO1 incubated for 16 to 20 hrs in full muller hinton medium by broth microdilution method; assay type: functional; conditions: time 16-20 hrs
Pseudomonas aeruginosa [7] = test: Antibacterial activity against multidrug-resistant Pseudomonas aeruginosa PA14 4.13 harboring phoQ mutant incubated for 16 to 20 hrs in full muller hinton medium by broth microdilution method; assay type: functional; conditions: time 16-20 hrs
rRNA = test: Binding affinity to [gamma32 P-ATP] labeled Escherichia coli MG1655 23S ribosomal RNA (5-CCCTTGGGACCTACTTC-3') at U2506 position assessed as increase in band intensity at 1 uM incubated for 2.5 hrs in full muller hinton medium by CMCT based gel electrophoresis; assay type: nucleic-acid assay
Staphylococcus aureus [8] = test: Antimicrobial activity against methicillin-resistant Staphylococcus aureus COL incubated for 16 to 20 hrs in 12.5 % muller hinton medium by broth microdilution method; assay type: functional; conditions: time 16-20 hrs
Pseudomonas aeruginosa [9] = test: Antibacterial activity against multidrug-resistant Pseudomonas aeruginosa PA14 2P4 harboring pmrB mutant incubated for 16 to 20 hrs in full muller hinton medium by broth microdilution method; assay type: functional; conditions: time 16-20 hrs
Klebsiella pneumoniae [10] = test: Antibacterial activity against multidrug-resistant Klebsiella pneumoniae clinical isolate OXA-48 incubated for 16 to 20 hrs in 12.5 % muller hinton medium by broth microdilution method; assay type: functional; conditions: time 16-20 hrs
Pseudomonas aeruginosa [11] = test: Antibacterial activity against multidrug-resistant Pseudomonas aeruginosa PA14 incubated for 16 to 20 hrs in full muller hinton medium by broth microdilution method; assay type: functional; conditions: time 16-20 hrs
Klebsiella pneumoniae [12] = test: Antibacterial activity against multidrug-resistant Klebsiella pneumoniae clinical isolate OXA-48 incubated for 16 to 20 hrs in full muller hinton medium by broth microdilution method; assay type: functional; conditions: time 16-20 hrs
Klebsiella pneumoniae [13] = test: Antimicrobial activity against Klebsiella pneumoniae NCTC 418 incubated for 16 to 20 hrs in full muller hinton medium by broth microdilution method; assay type: functional; conditions: time 16-20 hrs
Pseudomonas aeruginosa [14] = test: Antibacterial activity against multidrug-resistant Pseudomonas aeruginosa clinical isolate ZEM9A incubated for 16 to 20 hrs in full muller hinton medium by broth microdilution method; assay type: functional; conditions: time 16-20 hrs
[15] = Hemolytic activity in human RBC incubated for 4 hrs; assay type: toxicity, cell-based; conditions: erythrocyte
Pseudomonas aeruginosa [16] = test: Antibacterial activity against multidrug-resistant Pseudomonas aeruginosa clinical isolate ZEM-1A incubated for 16 to 20 hrs in full muller hinton medium by broth microdilution method; assay type: functional; conditions: time 16-20 hrs
Pseudomonas aeruginosa [17] = test: Antibacterial activity against multidrug-resistant Pseudomonas aeruginosa clinical isolate ZEM-1A incubated for 16 to 20 hrs in 12.5 % muller hinton medium by broth microdilution method; assay type: functional; conditions: time 16-20 hrs
Acinetobacter baumannii = test: Antimicrobial activity against Acinetobacter baumannii ATCC 19606 incubated for 16 to 20 hrs in full muller hinton medium by broth microdilution method; assay type: functional; conditions: time 16-20 hrs

SMILES | MIC (Staphylococcus aureus [1]) [µg/mL] | MIC (Klebsiella pneumoniae [2]) [µg/mL] | MIC (Enterobacter cloacae) [µg/mL] | MIC (Pseudomonas aeruginosa [4]) [µg/mL] | Activity (Bacteria) | MIC (Pseudomonas aeruginosa [6]) [µg/mL] | MIC (Pseudomonas aeruginosa [7]) [µg/mL] | Activity (rRNA) | MIC (Pseudomonas aeruginosa [9]) [µg/mL] | MIC (Pseudomonas aeruginosa [11]) [µg/mL] | MIC (Klebsiella pneumoniae [12]) [µg/mL] | MIC (Klebsiella pneumoniae [13]) [µg/mL] | MIC (Pseudomonas aeruginosa [14]) [µg/mL] | MHC [15] [µg/mL] | MIC (Pseudomonas aeruginosa [16]) [µg/mL] | other results
CCC(C)C(NC(=O)C(CCCNC(=N)N)NC(=O)C(CCCNC(=N)N)NC(=O)C1CCCN1C(=O)C1CCCN1C(=O)C(CCCNC(=N)N)NC(=O)C1CCCN1C(=O)C(CCCNC(=N)N)NC(=O)C1CCCN1C(=O)C(CC(C)C)NC(=O)C(Cc1ccc(O)cc1)NC(=O)C1CCCN1C(=O)C1CCCN1C(=O)C(CCCCN)NC(=O)C(CC(=O)O)NC(=O)C(N)C(C)C)C(=O)NC(Cc1ccc(O)cc1)C(=O)NC(CC(N)=O)C(=O)NC(CCCNC(=N)N)C(N)=O (stereo unspecified) (H-VDKPPYLPRPRPPRRIYNR-NH2; configuration not given here) | > 64 | > 16 | > 64 | > 64 | inactive | > 64 | > 64 | inactive | > 64 | > 64 | > 64 | > 64 | > 64 | > 1000 | > 64 | Activity (Lipid bilayer [3]): Active; Activity (Lipid bilayer [5]): Active; MIC (Staphylococcus aureus [8]): > 64 µg/mL; MIC (Klebsiella pneumoniae [10]): > 64 µg/mL
CC[C@@H](C)[C@@H](NC(=O)[C@@H](CCCNC(=N)N)NC(=O)[C@@H](CCCNC(=N)N)NC(=O)[C@H]1CCCN1C(=O)[C@H]1CCCN1C(=O)[C@@H](CCCNC(=N)N)NC(=O)[C@H]1CCCN1C(=O)[C@@H](CCCNC(=N)N)NC(=O)[C@H]1CCCN1C(=O)[C@@H](CC(C)C)NC(=O)[C@@H](Cc1ccc(O)cc1)NC(=O)[C@H]1CCCN1C(=O)[C@H]1CCCN1C(=O)[C@@H](CCCCN)NC(=O)[C@@H](CC(=O)O)NC(=O)[C@H](N)C(C)C)C(=O)N[C@H](Cc1ccc(O)cc1)C(=O)N[C@H](CC(N)=O)C(=O)N[C@H](CCCNC(=N)N)C(N)=O (H-[dV][dD][dK][dP][dP][dY][dL][dP][dR][dP][dR][dP][dP][dR][dR][dI][dY][dN][dR]-NH2) | > 64 | > 16 | > 64 | > 64 | inactive | > 64 | > 64 | inactive | > 64 | > 64 | > 64 | > 64 | > 64 | > 1000 | > 64 | MIC (Pseudomonas aeruginosa [17]): > 64 µg/mL; MIC (Acinetobacter baumannii): > 64 µg/mL
